According to patent publication US8158635B2, “Solid forms comprising 4-[9-(tetrahydro-furan-3-yl)-8-(2,4,6-trifluoro-phenylamino)-9H-purin-2-ylamino]-cyclohexan-1-ol, compositions thereof, and uses therewith” (Signal Pharmaceuticals, LLC, priority 2006, dated 2012):
Counter-ions that a name gives are not always drawn.

Key:
[1] = Equilibration of solid form in solvent for 4 weeks at 40° C., resulting form by XRPD; format: physicochemical
Description: Equilibration slurry and evaporation experiments were carried out by adding an excess of Compound I free base or HCl salt to 2 mL of solvent. […] Upon reaching equilibrium, the saturated supernatant solution was removed and allowed to evaporate slowly in an open vial under nitrogen at 25° C. or 50° C., respectively. The slurry resulting from the equilibration was filtered and air-dried. X-ray powder diffraction (XRPD) measurements were performed in accordance with United States Pharmacopeia (USP) monograph <941> entitled “X-ray Diffraction” (See, e.g., The United States Pharmacopeia, The National Formulary, 2003, The Unites States Pharmacopeial Convention, Inc., Rockville, Md., 2002, which is herein incorporated by reference in its entirety). A Thermo ARL X'TRA X-ray powder diffractometer (Thermo Electron Corp., Waltham, Mass.), equipped with Nickel-filtered Cu Kα radiation at 1.54 Å, was used for XRPD measurements from about 1.5 °2θ to about 40 °2θ, with a step size of about 0.020°, a count time of about 0.50 seconds per step, and a step scan rate of about 2.40°/min. The instrument was equipped with a fine focus X-ray tube. The voltage and amperage were set at 45 kV and 40 mA, respectively. The divergence slits were set at 0.5 mm and 0.2 mm. Diffracted radiation was measured using a Peltier-cooled Si (Li) solid-state detector. Representative XRPD patterns were presented displaying intensity (counts per second) versus position (°2θ). A sintered alumina standard was used to check peak positions. Peak positions may vary from sample to sample by approximately ±0.1 °2θ. Variation in peak position may depend upon multiple factors, including particle size, sample preparation, data collection temperature and parameters. Variation in peak intensity may occur, e.g., as a result of preferred orientation and/or variation in crystal habit.

[2] = Storage stability at stress conditions (about 40° C. and about 75% RH); format: physicochemical; conditions: about 40° C. and about 75% RH for about four weeks
Description: In certain embodiments, Form A of the HCl salt of Compound I is substantially pure. In certain embodiments, Form A of the HCl salt of Compound I is stable upon slurry in particular solvents at particular temperatures. For example, in certain embodiments, Form A of the HCl salt is stable in, e.g., acetone, acetonitrile, ethyl acetate, heptane, MTBE, toluene, THF and mixtures of two or more thereof at about 40° C. for about four weeks. In certain embodiments, Form A of the HCl salt is stable upon storage at particular stress conditions. For example, in certain embodiments, Form A of the HCl salt of Compound I is stable upon storage at about 40° C. and about 75% RH for about four weeks.

OC1CCC(Nc2ncc3nc(Nc4c(F)cc(F)cc4F)n(C4CCOC4)c3n2)CC1 (stereo not shown) [Form A of the HCl salt of Compound I, 4-[9-(tetrahydro-furan-3-yl)-8-(2,4,6-trifluoro-phenylamino)-9H-purin-2-ylamino]-cyclohexan-1-ol]
stable: stability upon slurry in solvents ([1]; acetone, acetonitrile, ethyl acetate, heptane, MTBE, toluene, THF and mixtures, about 40° C. for about four weeks) | stability upon storage at stress conditions [2]
Compound I HCl Salt Form A: Resulting Form by XRPD ([1]; Equilibrate HCl salt Form A in 2-Propanol for 4 weeks at 40° C.) | Resulting Form by XRPD ([1]; Equilibrate HCl salt Form A in Acetonitrile for 4 weeks at 40° C.) | Resulting Form by XRPD ([1]; Equilibrate HCl salt Form A in Ethyl acetate for 4 weeks at 40° C.) | Resulting Form by XRPD ([1]; Equilibrate HCl salt Form A in Heptane for 4 weeks at 40° C.) | Resulting Form by XRPD ([1]; Equilibrate HCl salt Form A in MTBE for 4 weeks at 40° C.) | Resulting Form by XRPD ([1]; Equilibrate HCl salt Form A in THF for 4 weeks at 40° C.) | Resulting Form by XRPD ([1]; Equilibrate HCl salt Form A in Toluene for 4 weeks at 40° C.) | Resulting Form by XRPD ([1]; Equilibrate HCl salt in Acetone for 4 weeks at 40° C.)
